# Measurements: the SangsterLogP compilation
# Experiment: method code SF, from Hansch, C. & Leo, A. (1987). Log P database [Dataset]. Pomona College Medicinal Chemistry Project.
# Conditions: not given
row,SMILES,logP
1,NC(=O)C(=Cc1ccccc1)C(N)=O,-0.13
2,CC(=O)Oc1cccc(Cl)c1,2.32
3,CCOC(N)=O,-0.15
4,CN(C)c1ncnc2sccc12,1.82
5,CC(=O)c1ccc2ccccn12,2.06
6,CNP(=O)(OC)Oc1ccc(SC)cc1 (stereo not drawn),1.81
7,NNC(=O)c1ccncc1,-0.5
8,c1ccc(-n2cnnn2)cc1,1.09
9,CCOC(=O)c1ccc(NC(=O)C(F)(F)F)cc1,2.25
10,NC(=O)c1cccc([N+](=O)[O-])c1,0.77
11,O=[N+]([O-])c1ccc(C=Cc2nc[nH]n2)o1,1.1
12,CC(=O)Nc1ccc(F)cc1,1.43
13,CSC(=O)Nc1ccccc1,2.4
14,ClC(Cl)=Nc1ccccc1,2.54
15,CCCCC1=Nc2ccc(Cl)cc2S(=O)(=O)N1,2.52
16,COc1ccc(C=C(C(C)=O)C(C)=O)cc1,1.73
17,O=C(CCl)Nc1ccccc1,1.63
18,COC(=O)[C@@]12OC[C@@]34[C@H](C[C@@H]5C(C)=C(O)C(=O)C[C@]5(C)[C@H]3C(O)C1O)OC(=O)C(OC(=O)C=C(C)C(C)C)[C@@H]42 (stereo partly drawn),1.66
19,C(#Cc1ccccc1)c1ccccc1,4.78
20,CC(C)c1ccccc1OCC(=O)O,2.84
21,Nc1nc2ccccc2c(=O)[nH]1,0.6
22,N#CC(=Cc1ccccc1)C(=O)Nc1ccccc1,3.41
23,O=C(c1ccccc1)C(F)(F)F,2.15
24,CCOC(=O)c1cccs1,2.33

row,SMILES,logP
1,Cc1ccccc1C(O)c1ccccc1 (stereo not drawn),3.06
2,CCOC(=O)CON=Cc1ccc(OCCOC(=O)c2cc(OC)c(OC)c(OC)c2)c(OC)c1,3.26
3,c1ccc(CNc2ccccc2)cc1,3.13
4,Cc1c(-c2ccccc2)oc2ccccc2c1=O,3.92
5,CCOC(=O)C(Cc1ccccc1)C(=O)OCC,2.76
6,COc1ccc(C(=O)N(C)C)cc1,0.96
7,O=S(=O)(Cc1ccccc1)c1ccccc1,2.05
8,N#CC(Cl)(Cl)Cl,2.09
9,CC(=O)OC1CCCCC1NC(=O)N(CCCl)N=O (stereo not drawn),1.93
10,O=S1(=O)NC(c2ccco2)=Nc2ccccc21,1.06
11,CN(C=O)c1ccccc1,1.09
12,O=S1(=O)NC=Nc2ccc(Cl)cc21,1.07
13,CCOP(=S)(Oc1ccc(C#N)cc1)c1ccccc1 (stereo not drawn),4.29
14,Nc1ccccc1I,2.32
15,N#CCc1ccsc1,1.26
16,O=NN(CCCl)C(=O)NC(C(=O)O)C1CCCCC1 (stereo not drawn),-0.63
17,CCCCN(C)C,1.7
18,CCc1ccc2c(c1)C(=O)c1ccc(NC(C)=O)cc1S2(=O)=O,3.44
19,c1nc[nH]n1,-0.58
20,c1ccc2c(c1)CCC2,3.33
21,c1cnc2ncncc2n1,-0.58
22,CO[C@H]1C=CO[C@@]2(C)Oc3c(C)c(O)c4c(O)c(c(C=NN5CCNCC5)c(O)c4c3C2=O)NC(=O)C(C)=CC=C[C@H](C)[C@H](O)[C@@H](C)[C@@H](O)[C@@H](C)[C@H](OC(C)=O)[C@@H]1C,1.12
23,O=c1cc[nH]cn1,-1.38
24,OCC(F)(F)C(F)(F)F,1.23

row,SMILES,logP
1,OC[C@@H](O)[C@@H](O)CO,-2.29
2,O=[N+]([O-])c1ccc2[nH]c(CCCCc3nc4cc([N+](=O)[O-])ccc4[nH]3)nc2c1,2.45
3,c1ccc(CSc2cnn[nH]2)cc1,2.65
4,CCOCCOC(=O)C(C#N)=C(CC)Nc1ccc([N+](=O)[O-])cc1,2.6
5,NC(=O)Oc1ccccc1,1.08
6,Cc1cc(C)cc(OC(=O)CNC(=O)c2ccccc2)c1,3.4
7,CSc1ccccc1NC(C)=O,1.53
8,O=C1OC2(CCCC2)c2ccccc21,2.56
9,O=[N+]([O-])c1ccccc1C(F)(F)F,2.58
10,O=C(Nc1ccc(Cl)c(Cl)c1)c1ccccc1,4.42
11,O=C(OCCOCCO)c1ccccc1,1.16
12,CCOC(=O)C(=Cc1ccc(Cl)cc1Cl)C(C)=O,3.67
13,CC(=O)Nc1ccc(S(C)(=O)=O)cc1,0.58
14,CCOc1ccccc1NC(C)=O,1.49
15,c1ccc(-c2ccc(C(c3ccccc3)n3ccnc3)cc2)cc1 (stereo not drawn),4.77
16,C=CC(N)=O,-0.67
17,CSc1cccc(NC(C)=O)c1,2.14
18,CC(=O)Oc1ccccc1C,1.93
19,COc1cn[nH]c1,0.37
20,CCOC(=O)OCC,1.21
21,CN(C)C(=O)Cc1cccs1,0.65
22,CCC(C)NC(=O)C(=Cc1ccccc1)Cc1ccccc1 (stereo not drawn),3.99
23,CC1(O)OC(=O)c2ccccc21 (stereo not drawn),0.81
24,Cc1nnc(SCc2ccccc2)o1,1.74

row,SMILES,logP
1,c1ccc2c(c1)OCCO2,2.01
2,OC(CF)CF,-0.36
3,CCC(C)NP(=O)(OC)Oc1cc(Cl)c(Cl)cc1Cl (stereo not drawn),3.99
4,C(=C\c1ccccn1)/c1ccccn1,2.11
5,CC1=Nc2ccc(F)cc2S(=O)(=O)N1,0.62
6,Cc1ccc2[nH]c(=O)[nH]c(=O)c2c1,0.55
7,C=C(C)C1Cc2c(ccc3c2OC2COc4cc(OC)c(OC)cc4C2C3=O)O1 (stereo not drawn),4.1
8,CCOC(=O)[C@H](O)[C@@H](O)C(=O)OCC,-0.29
9,CCC(=O)Nc1ccccc1,1.61
10,CCOP(=S)(OCC)SCSCC,3.24
11,O=C1OCc2ccccc21,0.8
12,CC(=O)Oc1ccccc1Cl,2.18
13,Nc1cccc([N+](=O)[O-])c1N,1.27
14,C#CC(C)(C)O,0.28
15,CCc1n[nH]c(=O)[nH]c1=O,0.22
16,CCCCCCCCOC(=O)c1ccccc1C(=O)OCCCCCCCC,5.22
17,CCOC(=O)NC(O)C(Cl)(Cl)Cl (stereo not drawn),1.84
18,CC1=Nc2c(C)cccc2S(=O)(=O)N1,0.52
19,CCC1OC(=O)C(C)C(OC2CC(C)(OC)C(O)C(C)O2)C(C)C(OC2OC(C)CC(N(C)C)C2O)C2(C)CC(C)C3(OC(=O)OC(C3C)C1(C)O)O2 (stereo not drawn),3.11
20,O=C(Nc1ccccc1)N(c1ccccc1)c1ccccc1,3.28
21,c1ccn2nnnc2c1,-0.09
22,CN(C)CCc1cccs1,1.99

# Same assay, conditions: pH 3.0
row,SMILES,logD
1,CSCC1=C(C(=O)O)N2C(=O)C(NC(=O)Cc3cccs3)C2SC1 (stereo not drawn),1.01
2,Cc1nnc(SCC2=C(C(=O)O)N3C(=O)C(NC(=O)Cc4cccs4)C3SC2)s1 (stereo not drawn),0.67
3,CC(=O)OCC1=C(C(=O)O)N2C(=O)C(NC(=O)C(O)c3ccccc3)C2SC1 (stereo not drawn),-0.44

# Same assay, conditions: pH 5.0
row,SMILES,logD
1,CC(C)c1cccc(O)c(=O)c1,1.82

# Same assay, conditions: pH 5.9
row,SMILES,logD
1,CCOc1cc(Oc2ccc(C(F)(F)F)cc2Cl)ccc1[N+](=O)[O-],4.7

# Same assay, conditions: pH 6.0
row,SMILES,logD
1,Cc1cc(N(C)S(=O)(=O)c2ccc(N)cc2)no1,1.75

# Same assay, conditions: pH 7.0
row,SMILES,logD
1,NC(=O)c1ccco1,-0.11
2,O=[N+]([O-])c1cccc(C(F)(F)F)c1,2.62
3,O=CNc1cccc([N+](=O)[O-])c1,1.4

# Same assay, conditions: pH 7.4
row,SMILES,logD
1,Nc1n[nH]c(N)n1,-1.61
2,C=CCn1c(C)c(N(C)C)c(=O)n(-c2ccccc2)c1=O,1.44

# Same assay, conditions: pH 8.9
row,SMILES,logD
1,NNc1ccccc1,1.25

# Same assay, conditions: pH 11.0
row,SMILES,logD
1,c1cncc(CCN2CCCCC2)c1,1.66
2,CCN(CC)CCc1cccnc1,1.23

# Same assay, conditions: pH 12.0
row,SMILES,logD
1,CCCCCC1CN[C@H](C(=O)NC(C(C)Cl)[C@H]2O[C@H](SC)[C@H](O)[C@@H](O)[C@H]2O)C1 (stereo in doubt),2.74
2,CN(C)/N=N/c1ccccc1CO,1.73

# Same assay, conditions: pH 13.0
row,SMILES,logD
1,NCc1ccc([N+](=O)[O-])cc1,1.06
2,COc1ccc(N2C(N)=NC(N)=NC2(C)C)cc1,0.4
3,COc1ccc(Cc2cnc(N)nc2N)c(OC)c1OC,1.52
